# Measurements from patent US20250289837A1, “MITOCHONDRIOTROPIC HETEROARYL BENZAMIDE POTASSIUM CHANNEL KV1.3 INHIBITORS” (UNIVERZA V LJUBLJANI, priority 2022, published 2025).
# What was measured:
# [1] = tested on: pancreatic cancer cell line Colo 357; assay: Apoptosis in 2D culture, caspase 3/7 activity reporter; type: cell-based, human; details: 24 h incubation, FIG. 2; for Apoptosis induction (caspases 3/7 activation): already at 5 μM
# Method: FIG. 2. Levels of apoptosis observed in the presence of the indicated compounds after 24 hours incubation. Apoptosis was measured as activation of the executor caspases 3/7, using a fluorescent indicator. The values were normalized against the apoptosis level observed in the presence of the solvent (DMSO). The symbols indicate biological replicates (with three technical replicates each).
# (§1) To test the activity of the compounds on biological systems, we chose the pancreatic cancer cell line Colo 357, which expresses Kv1.3 and is sensitive to cell-permeant Kv1.3 inhibitors (Zaccagnino et al., Oncotarget 8, 38276-38293, 2017). Growth, cell viability and apoptosis were all determined by high content imaging in a Incucyte (Sartorius) live cell imaging device. Images were taken every hour for several days after addition of the compounds dissolved in DMSO (time 0) and the corresponding indicators, CytotoxGreen or CytotoxRed for cytotoxicity and the green Caspase 3/7 activity reporter for apoptosis.
# The toxic effect of both compounds was induced through apoptosis, as expected from mitoKv1.3 inhibitors Urbani, A., et al., Front Cell Dev Biol 8, 620081, 2021). FIG. 2 represents apoptosis induction after 24 h incubation in the presence of compound 2 and 8 at the indicated concentrations.
# Colo 357 tumor spheroids [2] = assay: Cytotoxicity on tumor spheroids (3-D cultures), Cytotox green; type: cell-based, human; details: concentrations as low as 5 μM, 48 h treatment, FIG. 3
# Method: FIG. 3. Cytotoxicity of the indicated compounds on tumor spheroids. Fluorescence of the dead-cell marker Cytotox green was monitored over time. In the Figure, fluorescence values after 48 h in the presence of the indicated concentration of the compound are reported normalized to the value obtained in the presence of DMSO. The symbols indicate biological replicates (with three technical replicates each).
# as §1
# To obtain information on the effect of the compounds in a model more similar to the situation in vivo, the effects of 2 and 8 were also studied in tumor spheroids. […] Cytotoxicity was determined as in the conventional 2D cultures but after 48 h treatment instead of 24 h, because the effects needed longer time to develop.
# [3] = tested on: pancreatic cancer cell line Colo 357; assay: Cytotoxicity in conventional 2D cultures, Cytotox green, Incucyte live cell imaging; type: cell-based; details: 24 hours of treatment, FIG. 1
# Method: FIG. 1. Cytotoxicity of the indicated compounds. Cells plated on 96-well plates were incubated in the presence of 50 μM of the indicated compounds and fluorescence of the dead-cell marker Cytotox green was monitored over time. In the Figure, fluorescence values after 24 h are reported normalized to the value obtained in the presence of DMSO. […] The symbols indicate biological replicates (with three technical replicates each).
# as §1
# The first screening for cytotoxicity was performed on conventional 2D cultures (FIG. 1).
# Colo 357 tumor spheroids [4] = assay: Apoptosis in tumor spheroids (3D culture), caspase 3/7 reporter; type: cell-based, human; details: 25 μM, FIG. 6
# Method: FIG. 4. Levels of apoptosis observed in the presence of the indicated compounds during 48 h of treatment. Images were acquired every hour. Apoptosis was measured as activation of the executor caspases 3/7, using a fluorescent indicator. Mean±SEM, three replicates.
# FIG. 5. Levels of apoptosis observed in the presence of the indicated compounds over time at two different concentrations (the curves for control and 5 μM are the same as in FIG. 4). Apoptosis was measured as activation of the executor caspases 3/7, using a fluorescent indicator. The open symbols in orange represent 5 μM, solid symbols indicate 25 μM.
# FIG. 6. Comparison of the time course of the induction of apoptosis (orange) and of cell death (blue) in the presence of 25 μM compound 8. […]
# To test the activity of the compounds on biological systems, we chose the pancreatic cancer cell line Colo 357, which expresses Kv1.3 and is sensitive to cell-permeant Kv1.3 inhibitors (Zaccagnino et al., Oncotarget 8, 38276-38293, 2017). Growth, cell viability and apoptosis were all determined by high content imaging in a Incucyte (Sartorius) live cell imaging device. […]
# Cell death in 3D culture was also attributable to induction of apoptosis. […] The fluorescence of the caspase 3/7 reporter was detectable soon after addition of the treatment and was markedly more intense than the values measured in the control treatment (DMSO).
# KV1.5 = KV1.5 (Homo sapiens, UniProt P22460); details: cited from earlier work
# KV1.3 = details: cited from earlier work
# [5] = tested on: human SAOS2, mouse B16F10 melanoma, and human B-CLL; details: cited from earlier work
# [6] = tested on: HEK293 and K562 cells, and T and B cells from healthy subjects; details: cited from earlier work
# cancer cells = details: in vitro and in vivo studies; cited from earlier work
# [7] = tested on: Jurkat leukemia T cells, mouse melanoma B16F10 cells, human PDAC cells (Bx-PC3, PANC-1, As-PC1, CAPAN-1); details: B16F10, Bx-PC3, PANC-1, As-PC1, CAPAN-1 cells; cited from earlier work
# [8] = tested on: orthotopic melanoma B16F10; details: cited from earlier work; for B16F10 tumor volume: orthotopic mouse B16F10 melanoma model
# [9] = tested on: human pancreatic Colo357 tumors; details: mice; cited from earlier work
# [10] = cited from earlier work
# [11] = tested on: pancreatic ductal adenocarcinoma (PDAC) cells; details: cited from earlier work
# [12] = tested on: orthotopic PDAC xenograft; details: SCID beige mouse; cited from earlier work
# [13] = tested on: KV1.1, KV1.2, KV1.5 and KV3.1; details: cited from earlier work
smiles,measurement,setting,value
"COc1ccccc1C(=O)NC[C@]1(c2ccsc2)CC[C@H](OC(=O)NCCC[P+](c2ccccc2)(c2ccccc2)c2ccccc2)CC1.[I-] [Example 2, (3-(((((1S,4S)-4-((2-Methoxybenzamido)methyl)-4-(thiophen-3-yl)cyclohexyl)oxy)carbonyl)amino)propyl)triphenylphosphonium iodide]",Dose dependence of the intensity of apoptosis induction,[1],increased in a dose-dependent manner
same,Apoptosis induction (caspases 3/7 activation),[1],strong increase in apoptotic cells
same,Cytotoxicity in tumor spheroids,Colo 357 tumor spheroids [2],significant levels of cytotoxicity
same,Cell death (cytotoxicity screening),[3],most intense effect
"COc1ccccc1C(=O)NCC1(c2ccsc2)CCC(OC(=O)NCCCC[P+](c2ccccc2)(c2ccccc2)c2ccccc2)CC1.[I-] [Example 8, (4-(((((1S,4S)-4-((2-Methoxybenzamido)methyl)-4-(thiophen-3-yl)cyclohexyl)oxy)carbonyl)amino)butyl)triphenylphosphonium iodide]",Time course of apoptosis compared with cytotoxicity in spheroids,Colo 357 tumor spheroids [4],initiation of the decline in apoptosis signal corresponds to the start of the increase in the number of dead cells
same,Dose dependence of the intensity of apoptosis induction,[1],increased in a dose-dependent manner
same,Apoptosis induction (caspases 3/7 activation),[1],strong increase in apoptotic cells
same,Cytotoxicity in tumor spheroids,Colo 357 tumor spheroids [2],significant levels of cytotoxicity
same,Cell death (cytotoxicity screening),[3],most intense effect
"O=c1ccc2c(OCCCCOc3ccccc3)c3ccoc3cc2o1 [PAP-1, 4-(4-phenoxybutoxy)-7H-furo[3,2-g]chromen-7-one]",Selectivity over Kv1.5,KV1.5,[…]
same,Apoptosis in cancer cells,[5],induced apoptosis
same,Effects on healthy cells,[6],did not show similar effects
"O=c1ccc2c(OCCCCOc3ccc(CCC[P+](c4ccccc4)(c4ccccc4)c4ccccc4)cc3)c3ccoc3cc2o1.[I-] [PAPTP, (3-(4-(4-((7-oxo-7H-furo[3,2-g]chromen-4-yl)oxy)butoxy)phenyl)propyl)triphenylphosphonium iodide]",Effectiveness compared with the parent PAP-1,cancer cells,much more effective than the parent PAP-1
same,Cell death,[7],induced cell death
same,Tumor volume reduction,[8]; co-applied with cisplatin,more than 90%
same,B16F10 tumor volume,[8],greatly reduce
same,Colo357 tumors,[9],significant reductions
"O=C(NCCC[P+](c1ccccc1)(c1ccccc1)c1ccccc1)Oc1ccc(OCCCCOc2c3ccoc3cc3oc(=O)ccc23)cc1.[I-] [PCARBTP, (3-(((4-(4-((7-oxo-7H-furo[3,2-g]chromen-4-yl)oxy)butoxy)phenoxy)carbonyl)amino)propyl)triphenylphosphonium iodide]",Effectiveness compared with the parent PAP-1,cancer cells,much more effective than the parent PAP-1
same,Cell death,[7],induced cell death
same,B16F10 tumor volume,[8],greatly reduce
same,Colo357 tumors,[9],significant reductions
same,Hydrolysis in culture medium,[10]; Dulbecco's modified Eagle medium,slow hydrolysis
same,Hydrolysis in mouse blood,"[10]; physiological conditions, mouse blood",hydrolyzed to PAPOH
"O=C(OCCC[P+](c1ccccc1)(c1ccccc1)c1ccccc1)Oc1ccc(OCCCCOc2c3ccoc3cc3oc(=O)ccc23)cc1.[I-] [PCTP, (3-(((4-(4-((7-oxo-7H-furo[3,2-g]chromen-4-yl)oxy)butoxy)phenoxy)carbonyl)oxy)propyl)triphenylphosphonium iodide]",Effectiveness compared with the parent PAP-1,cancer cells,much more effective than the parent PAP-1
same,Cell death,[7],induced cell death
"O=c1ccc2c(OCCCCc3ccccc3)c3ccoc3cc2o1 [Psora-4, 4-(4-Phenylbutoxy)-7H-furo[3,2-g][1]benzopyran-7-one]",IC50,KV1.3,[…]
same,Apoptosis in cancer cells,[5],induced apoptosis
same,Effects on healthy cells,[6],did not show similar effects
"CC(C)N=c1cc2n(-c3ccc(Cl)cc3)c3ccccc3nc-2cc1Nc1ccc(Cl)cc1 [clofazimine, N,5-bis(4-chlorophenyl)-3-propan-2-yliminophenazin-2-amine]",Apoptosis in PDAC cells,[11],induced apoptosis
same,Reduction of tumor size,"[8]; orthotopic melanoma B16F10 line, mouse",90%
same,Primary tumor weight,[12],significantly reduced
same,IC50,KV1.3,300 nM
same,Apoptosis in cancer cells,[5],induced apoptosis
same,Effects on healthy cells,[6],did not show similar effects
same,"Selectivity over KV1.1, KV1.2, KV1.5 and KV3.1",[13],tenfold
